According to patent US20030228607A1, “Screening method and modulators having an improved therapeutic profile” (priority 2002, published 2003):

Experiments:
LXRα and LXRβ = target: T1, LXRα and LXRβ (Homo sapiens, UniProt P55055+Q13133); assay: High throughput FRET co-activator (SRC-1) recruitment assay, multiplexed; format: biochemical; details: 10 uM, positive control; negative control DMSO around 0
T1 construct: made in house
T1 sequence (Q13133 188-447 limits assumed): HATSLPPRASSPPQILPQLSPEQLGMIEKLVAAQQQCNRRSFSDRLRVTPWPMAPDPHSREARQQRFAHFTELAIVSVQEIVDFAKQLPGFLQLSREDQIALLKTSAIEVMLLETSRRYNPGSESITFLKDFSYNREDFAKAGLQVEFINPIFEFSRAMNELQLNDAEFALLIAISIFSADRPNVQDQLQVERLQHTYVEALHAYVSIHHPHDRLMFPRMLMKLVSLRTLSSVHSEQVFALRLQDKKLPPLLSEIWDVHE
T1 sequence (P55055 197-460 limits assumed): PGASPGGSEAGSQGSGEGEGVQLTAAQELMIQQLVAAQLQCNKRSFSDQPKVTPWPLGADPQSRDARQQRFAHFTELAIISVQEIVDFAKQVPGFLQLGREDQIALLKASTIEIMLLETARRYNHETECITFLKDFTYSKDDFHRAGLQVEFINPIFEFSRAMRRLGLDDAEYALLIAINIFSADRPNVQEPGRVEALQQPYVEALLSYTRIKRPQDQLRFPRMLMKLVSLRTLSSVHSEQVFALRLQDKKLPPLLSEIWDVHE
T1 sequence (Q15788 676-700 partner limits assumed): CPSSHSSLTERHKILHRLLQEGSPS
Protocol: FIG. 9. is a scatter plot of a co-activator recruitment assay showing fluorescence emitted from APC at 665 nm in a FRET based (biochemical) co-factor recruitment assay that detects the binding of the SCR-1 co-activator to […]. In this assay, recruitment of SCR-1 to both LXRα and LXRβ were simultaneously assayed.
High through FRET cofactor interaction assays were performed in 96 or 384 well assay well plates using automated liquid handling and analysis. Screens for LXR were performed using the protocol below. Equivalent screens for FXR were performed using the FXR (SEQ.ID. No. 4) ligand binding domain in place of LXRα and LXRβ LBD and at a concentration of 8 nM per well.
1. Partially purified recombinant protein comprising glutathione-S-transferase fused in frame to the LXR-ligand binding domain (comprising amino acids 188-447 of human LXRα (SEQ. ID. No. 6), or amino acids 198-461 of human LXRβ (SEQ. ID. No. 7)).
2. Biotinylated peptide containing a SRC-1 receptor interaction motif(B-SRC-1) (SEQ. ID. No. 46).
3. […]
d) Plates were read using an LJL Analyst, or similar instrument, using the following conditions: Channel 1: The excitation wavelength was set to 330 nm, emitted light was collected at 615 nm, with 100 flashes per well, an integration time of 1000 μs; a 10 msec interval between flashes, and a delay after flashes of 200 μs. […]

[1] = target: T2, human LXRβ ligand binding domain with co-repressors NCoR and SMRT (Homo sapiens, UniProt P55055, DUP175-175); assay: GAL4 two-hybrid co-repressor interaction in CV-1 cells, LXRβ; format: cell-based; details: 1 μM overnight, luciferase normalized to β-gal
T2 construct: expressed in transfected cells; host or cells: CV-1 cells
T2 sequence (P55055 with tags, fused parts or gaps DUP175-175): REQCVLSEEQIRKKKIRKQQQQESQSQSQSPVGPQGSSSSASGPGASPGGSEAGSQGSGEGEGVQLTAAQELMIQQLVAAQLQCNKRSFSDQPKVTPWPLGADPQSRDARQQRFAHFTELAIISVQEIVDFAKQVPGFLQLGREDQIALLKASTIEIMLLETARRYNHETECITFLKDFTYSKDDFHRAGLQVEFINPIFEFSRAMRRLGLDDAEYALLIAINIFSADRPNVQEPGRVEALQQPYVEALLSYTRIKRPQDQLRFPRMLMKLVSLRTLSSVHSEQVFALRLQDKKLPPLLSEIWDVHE
Protocol: (§1) FIG. 6. […] Two-hybrid analysis was performed by transiently transfecting CV-1 cells with a Gal4-luciferase reporter, Gal4-fusions of the receptor interacting domains of NcoR and SMRT, VP16 fusion of the ligand binding domains of LXRα and LXRβ and a β-gal expression vector. Cells were transfected with FUGENE transfection reagent and incubated with vehicle or 1 μM T0901317 overnight. The cells were then lysed and analyzed for β-gal and luciferase activity. The data is presented as luciferase activity normalized to β-gal activity.
(§2) GAL4 two-hybrid experiments. CV-1 cells were transfected using FuGene6 (Roche Applied Science, Indianapolis, Ind.) per manufacturer's instructions in 96 well plates with a total of 65 ng of DNA per well, consisting of 20 ng β-gal reporter, 15 ng GAL4-UAS4xRE (SEQ. ID. No. 28), 15 ng VP16-LXR-LBD, and 15 ng GAL4-human silencing mediator of retinoid and thyroid transcription (SMRT) receptor interacting domain 1 and 2 (ID1+ID2) or human nuclear receptor corepressor 1 (NCoR) ID1+ID2.

ABCA1 [2] = assay: ABCA1 mRNA in tissues of mice dosed by oral gavage; format: in vivo, mouse; details: 10 mg/kg daily for 7 days, intestinal mucosa, liver, quadriceps, LXR dependent
Protocol: (§3) FIG. 5. LXR mediated repression of ABCA1 is tissue specific. To measure the LXR dependent regulation of ABCA1 in different tissues wild type and LXRαβ−/− mice were dosed with 10 mg/kg T0901317 for 7 days by oral gavage. After 7 days the animals were sacrificed and intestinal mucosa, quadriceps, and livers were harvested. Mouse embryonic fibroblasts (MEFs) were isolated from embryos harvested at embryonic day 14. MEFs were plated in DMEM+10% FBS and treated with either vehicle or 1 μM T0901317 for 18 hrs. RNA was isolated and RT-PCR was used to quantitate the levels of ABCA1 and cyclophilin in FIG. 5A, intestinal mucosa, FIG. 5B, liver, FIG. 5C, MEFs and FIG. 5D, quadricep. […] RNA isolation and analysis of gene expression by quantitative RT-PCR. […] Quantitative PCR of reverse transcriptase reactions was carried out with 1.25 units Taq polymerase (Life Technologies), 1× Taq buffer, 3 mM MgCl2, 200 uM dNTPs, 400 nM target specific forward and reverse primers and 100 nM target specific fluorogenic probe. […] Levels of cyclophilin were measured in all in vivo samples and the results are presented as number of target transcripts per cyclophilin transcript. […] ABCA1 levels were also measured in isolated mouse embryonic fibroblasts treated with T091317 in culture. LXR agonist treatment increases expression of ABCA1 mRNA in all of the tissues analyzed, in an LXR dependent manner. […]

ABCA1 [3] = assay: ABCA1 mRNA (RT-PCR) and protein (western blot) in peritoneal macrophage; format: cell-based, mouse; details: 1 μM, 18 hrs
Description: FIG. 2. LXR dependent activation and repression of ABCA1. Thyoglycolate induced peritoneal macrophage were isolated from wild type and LXRαβ knockout mice. […] FIG. 2A. Following induction mRNA was isolated and RT-PCR was used to quantitate the levels of ABCA1 and the cyclophilin. ABCA1 levels were normalized to cyclophilin levels and the results are presented as fold induction above wild type macrophage treated with vehicle. FIG. 2B. For western blot analysis, whole cells extracts were isolated, run on an SDS-PAGE and probed with an antibody specific for ABCA1. RNA isolation and analysis of gene expression by quantitative RT-PCR. Total RNA from mouse tissues and cells was isolated using RNeasy kits (QIAGEN Inc.) according to the supplier's total RNA isolation procedure. Real time PCR was performed using a Perkin-Elmer/ABI 7700 Prism. […] Quantitative PCR of reverse transcriptase reactions was carried out with 1.25 units Taq polymerase (Life Technologies), 1× Taq buffer, 3 mM MgCl2, 200 uM dNTPs, 400 nM target specific forward and reverse primers and 100 nM target specific fluorogenic probe. […] Levels of cyclophilin were measured in all in vivo samples and the results are presented as number of target transcripts per cyclophilin transcript. […] RT-PCR was used to quantitate the levels of ABCA1 and the cyclophilin following induction of mRNA. […]

[4] = target: T3, human LXRα ligand binding domain with co-repressors NCoR and SMRT (Homo sapiens, UniProt Q13133); assay: GAL4 two-hybrid co-repressor interaction in CV-1 cells, LXRα; format: cell-based; details: 1 μM overnight, luciferase normalized to β-gal
T3 construct: expressed in transfected cells; host or cells: CV-1 cells
T3 sequence (Q13133 164-447): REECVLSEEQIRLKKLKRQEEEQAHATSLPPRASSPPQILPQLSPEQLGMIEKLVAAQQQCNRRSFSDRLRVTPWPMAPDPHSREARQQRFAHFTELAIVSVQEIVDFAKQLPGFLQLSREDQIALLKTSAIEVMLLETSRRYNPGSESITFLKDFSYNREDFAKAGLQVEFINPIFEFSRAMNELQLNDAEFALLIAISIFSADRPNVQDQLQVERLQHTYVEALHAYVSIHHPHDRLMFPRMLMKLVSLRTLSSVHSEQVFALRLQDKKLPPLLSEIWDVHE
Protocol: as §1, §2

ABCA1 [5] = assay: ABCA1 mRNA in mouse embryonic fibroblasts in culture; format: cell-based; details: MEFs in culture, 1 μM, 18 hrs; LXR dependent
Protocol: as §3

SMILES: CC(C)CC[C@@H](O)[C@@H](C)[C@H]1CC[C@H]2[C@@H]3CC=C4C[C@@H](O)CC[C@]4(C)[C@H]3CC[C@]12C [22-R-Hydroxy-Cholesterol]
- fluorescence emitted from APC at 665 nm (SRC-1 recruitment, Spotfire scale) (LXRα and LXRβ): around 100

SMILES: O=S(=O)(c1ccccc1)N(CC(F)(F)F)c1ccc(C(O)(C(F)(F)F)C(F)(F)F)cc1 [T0901317, N-(2,2,2,-trifluoro-ethyl)-N-[4-(2,2,2-trifluoro-1-hydroxy-1-trifluoromethyl-ethyl)-phenyl]-benzenesulfonamide]
- interaction of LXRβ with co-repressors NCoR and SMRT [1]: inhibited
- expression of ABCA1 mRNA in tissues (ABCA1 [2]): increases
- ABCA1 mRNA levels (ABCA1 [3]; RT-PCR normalized to cyclophilin, LXR dependent (wild type vs LXRαβ-/-)): increases
- ABCA1 protein levels (ABCA1 [3]; western blot, LXR dependent): increases
- interaction of LXRα with co-repressors NCoR and SMRT [4]: inhibited
- expression of ABCA1 mRNA in mouse embryonic fibroblasts (ABCA1 [5]): increases
